# Measured values taken from patent US9434769B2, “Peptide compositions and methods for inhibiting herpesvirus infection” (priority 2009, dated 2016).
# Read-outs that look alike come from different tables or passages of the source.
# Key:
# Towne GFP strain of HCMV = type: cell-based, Human Cytomegalovirus (HCMV); conditions: for inhibition of viral infection: HFF cells, MOI 0.5, 48 hours post infection
# Experimental: The Towne strain of HCMV containing the Green Fluorescent Protein (GFP) expression cassette was obtained from Dr. Dan Streblow at the Oregon Health Science University and was propagated in human foreskin fibroblast (HFF) cells. Viral supernatants were collected, centrifuged to clear cell debris, and filtered through a 0.45 μm filter. HFF cells were grown in Dulbecco's modified Eagle medium (DMEM) supplemented with 10% fetal bovine serum (FBS), penicillin G (100 U/mL), streptomycin ([…]), and GLUTAMAX™ L-glutamine supplement (2 mM) from Invitrogen.
# Human foreskin fibroblasts were seeded at the density of about 3.5×10^5 cells in each well of a 24-well plate about 24 hours prior to infection. The HFF cells were washed with 1×DPBS, and mock or virus infected for about 90 minutes at room temperature (RT) with the Towne GFP strain of HCMV at about 0.5 multiplicity of infection (MOI), preincubated with a range of concentrations of inhibitory peptides at about 37° C. for about 90 minutes. After the infection, virus mixture was removed and 10% FBS complete DMEM was added to each well and cells were incubated at about 37° C. for about 48 hours. GFP positive cells were visualized about 48 hours post infection by fluorescence microscopy and then quantified using flow cytometry. […] HFF cells were trypsinized, centrifuged, and resuspended in 1% FBS-Dulbecco's phosphate buffered saline (DPBS). GFP positive cells were quantified using flow cytometry (CYTOMICS FC 500 from Beckman Coulter, Fullerton, Calif.).
# All of the synthetic peptides were tested at the following concentrations: about 100 μM, 50 μM, 25 μM, 10 μM, 5 μM, 2.5 μM, 1.25 μM, 0.625 μM, 0.3125 μM, 0.156 μM, and 0.078 μM.
# HSV-1 McIntyre strain = experiment: Inhibition of HSV-1 infection of Vero cells (Crystal Violet staining); type: cell-based, Herpes Simplex Virus 1 (HSV-1); conditions: MOI 0.001, peptide 2.5 to 100 μM; for inhibition of HSV-1 infection: 48 hours
# Experimental: FIG. 6 illustrates inhibition of HSV-1 infection by HCMV gB peptides. To evaluate the ability of newly designed HCMV gB-specific peptide to inhibit HSV-1 infection, Vero cells were infected for about 90 minutes at room temperature with HSV-1 (McIntyre strain; MOI=0.001) that was preincubated with a range of concentrations of four different synthetic peptides at about 37° C. for about 90 minutes. Each treatment was done in triplicate, where A=media, B=HSV-1 MOI of 0.001, C=100 μM peptide and virus, D=50 μM peptide and virus, E=25 μM peptide and virus, F=10 μM peptide and virus, G=5 μM peptide and virus, H=2.5 μM peptide and virus. HCMV gB peptides (Peptide 174-200 (SEQ ID NO: 3), Peptide 233-263 (SEQ ID NO: 4), and Peptide 264-291 (SEQ ID NO: 5)) that are within domain II were inhibitory against HSV-1 infection. Peptide 476-494 (SEQ ID NO: 7) corresponds to trimerization domain of HCMV gB that contains extended α-helices important in the formation of HCMV gB homotrimer during fusion of HCMV virion and lipid membrane of the host cell. Overlapping inhibitory HSV-1 peptides span regions 496-510 and 501-515 of HSV-1 gB (SEQ ID NO: 8) and are analogous to HCMV gB Peptide 476-494 (SEQ ID NO: 7).
# To evaluate the ability of HCMV gB peptides to inhibit infection by HSV-1, Vero cells were plated at a density of about 1.5×10^5 cells in each well of a 24 well-plate 24 hours prior to infection. The cells were washed and mock- or virus-infected for about 90 minutes at room temperature with HSV-1 McIntyre strain (ATCC) of about 0.001 MOI preincubated with a range of concentrations of four different synthetic peptides at about 37° C. for about 90 minutes. After exposure to the virus, the virus mixture was removed and the cells were overlayed with 2% FBS MEM containing 1% methylcellulose. Cells were incubated for about 48 hours at about 37° C. After about 48 hours, the cells were fixed, stained with Crystal Violet, and air dried.
# In FIG. 6, each treatment was done in triplicate, where A=media, B=HSV-1 MOI of 0.001, C=100 μM peptide and virus, D=50 μM peptide and virus, E=25 μM peptide and virus, F=10 μM peptide and virus, G=5 μM peptide and virus, H=2.5 μM peptide and virus. […] Peptide 476-494 (SEQ ID NO: 7) corresponds to the trimerization domain of HCMV gB, which contains extended α-helices important in the formation of HCMV gB homotrimer during fusion of HCMV virion and lipid membrane of the host cell. Overlapping inhibitory HSV-1 peptides that span regions 496-510 and 501-515 of the HSV-1 gB protein (SEQ ID NO: 8) are analogous to HCMV gB peptide 476-494 (SEQ ID NO: 7). As predicted, HCMV Peptide 476-494 (SEQ ID NO: 7) worked best at the concentration of about 2.5 μM.
# HCMV TRpMIA = experiment: Inhibition of HCMV TRpMIA infection of HFF cells (IE-1/IE-2 positive cells); type: cell-based, Human Cytomegalovirus (HCMV); conditions: for significance of inhibition of infection: vs non-treated infected control
# Experimental: In order to assess the ability of the peptides of the present invention to inhibit a clinically significant HCMV (HCMV TRpMIA), Peptide 174-200 (SEQ ID NO:3), Peptide 233-263 (SEQ ID NO: 4), and Peptide 264-291 (SEQ ID NO: 5), were tested for inhibition of HCMV TRpMIA infection of HFF cells under the assay conditions similar to these described in Example 2 for the Towne strain of HCMV, above. In particular, HFF cells were plated in 96-well plates at a density of about 10,000 cells-per-well about 24 hours […]. Individual inhibitory peptides were evaluated against 0.5 MOI HCMV TRpMIA preincubated with various concentrations in the range of about 0.078 micromolar to about 100 micromolar. The results obtained from these assays are shown in FIG. 13, FIG. 14, and FIG. 15 for Peptide 174-200, Peptide 233-263, and Peptide 264-291, respectively. The degree of HCMV infection was determined by evaluating the number of cells expressing immediate-early 1 (IE-1) or IE-2 HCMV proteins 24 hours post-infection. Treatments resulting in significant reductions in the number of cells that were positive for IE 1, IE-2, or both, compared to non-treated control HCMV infected cells, are denoted by a * (p<0.05), ** (p<0.01), and *** (p<0.001, one-way ANOVA and Tukey's post test). Variants and derivatives of Peptide 233-263 (SEQ ID NO: 4) also were prepared and tested in the same assay. The sequences of the tested variants and derivatives are shown in Table 4, with additions or modifications from SEQ ID NO: 4 shown in boldface type.
# [1] = 50 micromolar, 24 hours post-infection
# [2] = 100 micromolar, 24 hours post-infection
# [3] = 25 micromolar to 100 micromolar
sequence,measurement,setting,value
"FFIFPNYTIVSDFGRPNAA (human cytomegalovirus glycoprotein B peptide) [Peptide 297-315, synthetic peptide of HCMV gB residues 297-315]",inhibition of viral infection,Towne GFP strain of HCMV; peptide 50 μM,about 40%
"HFFATSTGDVVYISPFYNGTNRNASYFG (human cytomegalovirus glycoprotein B peptide) [Peptide 264-291, synthetic peptide of HCMV gB residues 264-291]",inhibition of HSV-1 infection,HSV-1 McIntyre strain,inhibited HSV-1 infection
same,significance of inhibition of infection,HCMV TRpMIA; [1],* (* (p<0.05))
same,significance of inhibition of infection,HCMV TRpMIA; [2],* (* (p<0.05))
same,inhibition of viral infection,Towne GFP strain of HCMV; peptide 5 μM,about 70.5%
"HNLVYAQLQFTYDTLRGYI (human cytomegalovirus glycoprotein B peptide) [Peptide 476-494, synthetic peptide of the trimerization domain of HCMV gB, residues 476-494]",concentration at which the peptide worked best against HSV-1,HSV-1 McIntyre strain,about 2.5 μM
same,number of HCMV infected cells versus peptide concentration,Towne GFP strain of HCMV; decreasing peptide concentration,the number of HCMV infected cells decreased as the concentration of this peptide decreased
same,inhibitory activity against HCMV strain Towne-GFP,Towne GFP strain of HCMV; high concentrations tested,did not show any inhibitory activity
KDQWHSRGSTWLYRETANLNAMLTITTARSKYPY (Modified HCMV gB peptide) [Peptide 233-263.1],inhibition of HCMV TRpMIA infection compared to Peptide 233-263,HCMV TRpMIA,less effective
same,inhibition relative to the controls,HCMV TRpMIA,some level of inhibition
KDQWHSRGSTWLYRETANLNAMLTITTARSKYPYHFFATS [Peptide 233-263.4],inhibition of HCMV TRpMIA infection compared to Peptide 233-263,HCMV TRpMIA,less effective
same,inhibition relative to the controls,HCMV TRpMIA,some level of inhibition
VTVKDQWHSRGSTWLYRETANLNAMLTITTARSKYPY (Modified HCMV gB peptide) [Peptide 233-263.2],inhibition of HCMV TRpMIA infection compared to Peptide 233-263,HCMV TRpMIA,less effective
same,inhibition relative to the controls,HCMV TRpMIA,some level of inhibition
WEIHHINKFAQAYSSYSRVIGGTVFVA [Peptide 174-200],inhibition of HSV-1 infection,HSV-1 McIntyre strain,inhibited HSV-1 infection
same,significance of inhibition of infection,"HCMV TRpMIA; 25 micromolar, 24 hours post-infection",** (** (p<0.01))
same,significance of inhibition of infection,HCMV TRpMIA; [1],* (* (p<0.05))
same,significance of inhibition of infection,HCMV TRpMIA; [2],"*** (*** (p<0.001, one-way ANOVA and Tukey's post test))"
same,inhibition of viral infection,Towne GFP strain of HCMV; peptide 2.5 μM,~62%
same,inhibition of viral infection,Towne GFP strain of HCMV; peptide 5 μM,about 51%
same,inhibition of viral infection,Towne GFP strain of HCMV; peptide 100 μM,about 80%
WHSRGSTWLYRAETANLNAMLTITTARSKYPY (Modified HCMV gB peptide) [Peptide 233-263.5],inhibition of HCMV TRpMIA infection compared to Peptide 233-263,HCMV TRpMIA,less effective
same,inhibition relative to the controls,HCMV TRpMIA,some level of inhibition
WHSRGSTWLYRETANLNAMLTITTARSKYPYGRKKRRQRRRP (human cytomegalovirus glycoprotein B peptide) [Peptide 233-263.8],inhibition of HCMV TRpMIA infection compared to Peptide 233-263,HCMV TRpMIA,less effective
same,inhibition relative to the controls,HCMV TRpMIA,some level of inhibition
WHSRGSTWLYRETANLNAMLTITTARSKYPYHFF (Modified HCMV gB peptide) [Peptide 233-263.3],inhibition of HCMV TRpMIA infection compared to Peptide 233-263,HCMV TRpMIA,less effective
same,inhibition relative to the controls,HCMV TRpMIA,some level of inhibition
WHSRGSTWLYRETANLNAMLTITTARSKYPYP (Modified HCMV gB peptide) [Peptide 233-263.6],inhibition of HCMV TRpMIA infection compared to Peptide 233-263,HCMV TRpMIA,less effective
same,inhibition relative to the controls,HCMV TRpMIA,some level of inhibition
WHSRGSTWLYRETANLNAMLTITTARSKYPYRRRRRRRRR (human cytomegalovirus glycoprotein B peptide) [Peptide 233-263.9],extent of inhibition of infection,HCMV TRpMIA; [3],almost complete inhibition
same,significance of inhibition of infection,HCMV TRpMIA; [3],"*** (*** (p<0.001, one-way ANOVA and Tukey's post test))"
same,inhibition of HCMV TRpMIA infection compared to Peptide 233-263,HCMV TRpMIA,significant improvement
